Data as given in patent publication US20030027765A1, “Therapeutic peptides having a motif that binds specifically to non-acetylated H3 and H4 histones for cancer therapy” (priority 2000, published 2003).
Entries after “also recorded” stand apart in the source; their conditions may differ.

Columns and labels:
histone H3 [1] = assay: histone H3 acetylation in Na-butyrate treated C3H cells (immunoblot); format: cell-based, murine
Excerpt: (§1) Deacetylated histones are substrates for histone acetylation and for chromatin remodelling which has been associated with eukaryotic transcriptional regulatory mechanisms (K Struhl, Genes Dev., vol. 12, 599,1998; M. Grunstein, Nature, vol. 389,349, 1997).

histone H4 [2] = target: T1, histone H4 (Homo sapiens, UniProt P62805); assay: histone H4 acetylation in Na-butyrate treated MCF-7 cells (immunoblot); format: cell-based; details: absence of lunasin
T1 construct: endogenous in cells; host or cells: MCF-7
Excerpt: as §1

histone H4 [3] = target: T2, histone H4 (Mus musculus, UniProt P62806); assay: histone H4 acetylation in Na-butyrate treated C3H cells (immunoblot); format: cell-based, murine; details: absence of lunasin
T2 construct: endogenous in cells; host or cells: C3H 10T1/2 mouse embryo fibroblasts
Excerpt: as §1

histone H3 [4] = assay: histone H3 acetylation in Na-butyrate treated MCF-7 cells (immunoblot); format: cell-based, human
Excerpt: as §1

[5] = target: histone H3 in MCF-7 cells (human)
[6] = target: deacetylated H4 N-terminal tail peptide; assay: in vitro immuno-binding assay, increasing dose of deacetylated H4 peptide (FIG. 10)
tetra-acetylated H4 = target: T3, tetra-acetylated H4 (Homo sapiens, UniProt P62805); assay: in vitro immuno-binding assay, tetra-acetylated H4; details: FIG. 9
T3 construct: using acetylated and deacetylated forms of the H4 N-terminal tail

[7] = test system: mice embryo fibroblast cells (C3H 10T½); assay: cell adhesion assay with synthetic lunasin peptides; format: cell-based; details: C3H 10T½ cells, FIG. 2
Excerpt: (§2) Lunasin contains the cell adhesion motif RGD (arg-gly-asp). […] However, at this stage of mitosis, kinetochore assembly and spindle fiber attachment to centromeres had already transpired.

[8] = target: T4, deacetylated H4 N-terminal tail (Homo sapiens, UniProt P62805); assay: in vitro immuno-binding assay, deacetylated H4; details: for binding to deacetylated H4 N-terminus: FIG. 9
T4 construct: using acetylated and deacetylated forms of the H4 N-terminal tail

C3H cells = assay: lunasin treatment followed by E1A oncogene transfection (apoptosis); format: cell-based, murine; details: 20 h after transfection
Excerpt: As a negative control, E1A with deleted conserved region 1 (E1AΔCR1) that abolishes the RB binding domain was likewise used in the transfection experiments (D. Trouche, T. Kouzidares, Proc. Natl. Acad. Sci., USA, vol. 93, 1439 (1996)).

[9] = test system: murine embryo fibroblast cells; assay: exogenous application of lunasin to growth media, immunostaining; format: cell-based
Excerpt: as §2

C3H 10 T½ cells = assay: cell transformation assay (carcinogen-induced foci formation); format: cell-based, murine; details: FIG. 6, FIG. 12
[10] = treated with lunasin for 24 h, then E1Awt

Compound: CCCC(=O)[O-].[Na+] [Na-butyrate, reference compound]
- increase of H3 acetylation (histone H3 [1]; C3H cells, Na-butyrate treatment): 100 fold
- increase of histone H4 acetylation (histone H4 [2]): 200 fold
- increase of histone H4 acetylation (histone H4 [3]): 200 fold
- increase of H3 acetylation (histone H3 [4]; MCF-7 cells, Na-butyrate treatment): around 400 fold

Compound: Lunasin peptide
- acetylated H3 on immunoblots of acid-extracted proteins, Na-butyrate treated MCF-7 cells [5]: 4 fold
- binding against trLunasin-del [6]: 3 x

Compound: Lunasin-GRG: lunasin with deleted RGD motif (SKWQHQQDSCRKQLQGVNLTPCEKHIMEKIQGDDDDDDDD)
- binding to tetra-acetylated H4 (tetra-acetylated H4): not to the tetra-acetylated H4
- cell adhesion to C3H cells [7]: prevented cell adhesion
- binding to deacetylated H4 N-terminus [8]: high affinity

Compound: NLS-trLunasin: truncated lunasin peptide with the helix substituted by a nuclear localization sequence (NLS) (LEEKQKKKMEKEQGRGDDDDDDDDD; Glycine max; NLS-trLunasin)
- binding to deacetylated H4 N-terminus [8]: loss of binding to deacetylated H4

Compound: Ser-Lys-Trp-Gln-His-Gln-Gln-Asp-Ser-Cys-Arg-Lys-Gln-Leu-Gln-Gly-Val-Asn-Leu-Thr-Pro-Cys-Glu-Lys-His-Ile-Met-Glu-Lys-Ile-Gln-Gly-Arg-Gly-Asp -Asp-Asp-Asp-Asp-Asp-Asp-Asp-Asp [Lunasin]
- cell state after E1A-ΔCR1 transfection (C3H cells; presence of lunasin): normally dividing cells
- Annexin V staining of non-adherent cells (apoptosis) (C3H cells; [10]): positive fluorescent staining for Annexin V-HITC
- cell state after E1Awt transfection (C3H cells; [10]): preponderance of non-adherent cells
- Na-butyrate-induced increase in H3 acetylation upon addition of lunasin (histone H3 [1]; C3H cells): no observed increase
- acetylated H3 on immunoblots of acid-extracted proteins (histone H3 [1]; Na-butyrate treated C3H cells pretreated with 1 μM lunasin, FIG. 13): significant reduction
- cell adhesion to C3H cells [7]: adhered to C3H cells in a dose-dependent manner
- reduction of H3 acetylation (histone H3 [4]; MCF-7 cells, lunasin added prior to Na-butyrate treatment): 4 fold
- acetylated H3 on immunoblots of acid-extracted proteins (histone H3 [4]; Na-butyrate treated MCF-7 cells pretreated with 1 μM lunasin, FIG. 13): significant reduction
- internalization into cells ([9]; applied exogenously to the growth media, FIG. 3): became internalized
- chromosomal binding site of internalized peptide ([9]; applied exogenously, metaphase): preferentially binding to the telomeres of chromosomes during metaphase
- effect on cell division and proliferation ([9]; exogenous application): did not affect cell division and proliferation
- effect on kinetochore assembly ([9]; internalized lunasin): did not affect kinetochore assembly

Compound: trLunasin-del: 10 amino acid peptide fragment spanning a helical domain upstream of the poly-aspartyl carboxyl end of lunasin (EKHIMEKIQG; Glycine max; trLunasin-del)
- binding affinity to deacetylated H4 relative to NLS-trLunasin ([8]; FIG. 10): significantly higher affinity

Compound: trLunasin: truncated lunasin that contains only the reactive carboxyl end of the peptide (EKHIMEKIQGRGDDDDDDDDD; Glycine max; trLunasin)
- binding affinity to deacetylated H4 relative to trLunasin-del [8]: not significantly different
- binding to deacetylated H4 N-terminus [8]: significant reduction in deacetylated H4 binding; also recorded: lower binding affinity
- anti-transformation property / efficacy in preventing foci transformation (C3H 10 T½ cells): reduced efficacy
